Measured values reported in the supplement of paper PMC11061612.

Columns and labels:
Assay in all cases: Bliss excess, mean over the matrix (fraction); higher = more synergy
[1] = system: 647-V (Bladder Carcinoma)
In short: (§1)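 Cell lines grown in DMEM/F12 or RPMI with 10% FBS were plated in 1536-well plates and held 24 hours at 37°C, 5% CO2 before 72 hours of exposure to two-drug dose matrices, with DMSO typically at 0.2%. CellTiter-Glo 2.0 luminescence gave viability, which was converted to inhibition. Vehicle wells were set to 0 and blank wells to 1. Combination Emax is the second-highest inhibition in the matrix, and Bliss excess is the observed combination effect minus the expected EA + EB − EA·EB, where EA and EB are the single-agent effects.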

[2] = system: A172 (Glioblastoma)
In short: as §1

[3] = system: CS1 (Chondrosarcoma)
In short: as §1

[4] = system: D-392MG (Glioblastoma)
In short: as §1

[5] = system: DOK (Oral Cavity Carcinoma)
In short: as §1

[6] = system: ETK-1 (Biliary Tract Carcinoma)
In short: as §1

[7] = system: GDM-1 (Acute Myeloid Leukemia)
In short: as §1

[8] = system: HCC-827 (Lung Adenocarcinoma)
In short: as §1

[9] = system: HCC38 (Breast Carcinoma)
In short: as §1

[10] = system: HOP-92 (Non-Small Cell Lung Carcinoma)
In short: as §1

[11] = system: JHH-6 (Hepatocellular Carcinoma)
In short: as §1

[12] = system: MEG-01 (Chronic Myelogenous Leukemia)
In short: as §1

[13] = system: NCI-H1688 (Small Cell Lung Carcinoma)
In short: as §1

[14] = system: PA-TU-8902 (Pancreatic Carcinoma)
In short: as §1

[15] = system: RCC10RGB (Kidney Carcinoma)
In short: as §1

[16] = system: SK-LMS-1 (Other Solid Carcinomas)
In short: as §1

[17] = system: SK-MEL-1 (Melanoma)
In short: as §1

[18] = system: SLVL (B-Cell Non-Hodgkin's Lymphoma)
In short: as §1

[19] = system: Saos-2 (Osteosarcoma)
In short: as §1

[20] = system: U-118-MG (Low Grade Glioma)
In short: as §1

SMILES | Bliss excess [1] | Bliss excess [2] | Bliss excess [3] | Bliss excess [4] | Bliss excess [5] | Bliss excess [6] | Bliss excess [7] | Bliss excess [8] | Bliss excess [9] | Bliss excess [10] | Bliss excess [11] | Bliss excess [12] | Bliss excess [13] | Bliss excess [14] | Bliss excess [15] | Bliss excess [16] | Bliss excess [17] | Bliss excess [18] | Bliss excess [19] | Bliss excess [20]
NC1(C(=O)N[C@@H](CCO)c2ccc(Cl)cc2)CCN(c2ncnc3[nH]ccc23)CC1 [Capivasertib] + CC(C)n1c(=O)n(C)c2cnc3cc(F)c(-c4ccc(OCCCN5CCCCC5)nc4)cc3c21 [AZD1390] (first compound max 10 µM, 7x7, partner max 0.3 µM) | -0.04 | -0.0965 | -0.0698 | -0.0645 | -0.0428 | -0.0189 | -0.0904 | -0.0793 | -0.0314 | -0.0238 | -0.0908 | -0.0245 | -0.044 | -0.0859 | -0.0676 | -0.045 | -0.0207 | -0.0671 | -0.0063 | -0.0405
NC1(C(=O)N[C@@H](CCO)c2ccc(Cl)cc2)CCN(c2ncnc3[nH]ccc23)CC1 [Capivasertib] + CCN(CCO)CCCOc1ccc2c(Nc3cc(CC(=O)Nc4cccc(F)c4)[nH]n3)ncnc2c1 [AZD2811] (first compound max 10 µM, 7x7, partner max 1 µM) | -0.0332 | -0.0079 | -0.0211 | -0.0265 | -0.0355 | -0.012 | -0.0464 | -0.0428 | 0.0054 | -0.0285 | -0.0301 | -0.0484 | -0.0412 | -0.0381 | -0.0838 | -0.0055 | 0.0563 | -0.0608 | -0.0757 | -0.0475
NC1(C(=O)N[C@@H](CCO)c2ccc(Cl)cc2)CCN(c2ncnc3[nH]ccc23)CC1 [Capivasertib] + COc1nnc2ccc(N3CCC(c4ccc(OCCN5CCN(C)C(=O)[C@H]5C)cc4)CC3)nn12 [AZD5153] (first compound max 10 µM, 7x7, partner max 1 µM) | -0.0536 | 0.0178 | 0.0057 | -0.015 | 0.03 | 0.0486 | 0.0163 | 0.0472 | -0.022 | -0.0027 | -0.0365 | -0.0355 | 0.001 | -0.0841 | 0.0221 | 0.0014 | 0.0315 | -0.102 | -0.0028 | 0.057
NC1(C(=O)N[C@@H](CCO)c2ccc(Cl)cc2)CCN(c2ncnc3[nH]ccc23)CC1 [Capivasertib] + C[C@@H]1COCCN1C2=NC(=NC(=C2)C3(CC3)[S@](=N)(=O)C)C4=C5C=CNC5=NC=C4 [AZD6738] (first compound max 10 µM, 7x7, partner max 10 µM) | -0.0386 | -0.0106 | -0.0517 | -0.0393 | -0.0681 | -0.066 | -0.024 | -0.0421 | -0.0366 | -0.0518 | -0.0229 | -0.0464 | -0.0062 | 0.0247 | -0.134 | 0.0094 | 0.0147 | -0.0936 | -0.0717 | -0.0276
NC1(C(=O)N[C@@H](CCO)c2ccc(Cl)cc2)CCN(c2ncnc3[nH]ccc23)CC1 [Capivasertib] + Cn1cnc2c(F)c(Nc3ccc(Br)cc3Cl)c(C(=O)NOCCO)cc21 [Selumetinib] (first compound max 10 µM, 7x7, partner max 10 µM) | -0.0134 | -0.008 | 0.0373 | -0.0202 | 0.0518 | 0.0555 | 0.072 | 0.04 | 0.0116 | 0.003 | -0.0262 | 0.0548 | 0.0549 | 0.0181 | -0.0305 | 0.0883 | 0.0465 | -0.0251 | 0.0087 | 0.0071
Cc1nc(Nc2ncc(C(=O)Nc3c(C)cccc3Cl)s2)cc(N2CCN(CCO)CC2)n1 [Dasatinib] + CC(=O)Nc1cccc(-n2c(=O)n(C3CC3)c(=O)c3c(Nc4ccc(I)cc4F)n(C)c(=O)c(C)c32)c1 [Trametinib] (first compound max 2 µM, 7x7, partner max 1 µM) | -0.002 | -0.0823 | -0.022 | 0.0155 | 0.0288 | 0.0226 | -0.102 | -0.0114 | -0.0277 | 0.113 | 0.0847 | 0.0019 | -0.0122 | 0.0404 | -0.0719 | -0.0457 | -0.0852 | -0.147 | 0.0164 | -0.0736
COc1cccc2c1C(=O)c1c(O)c3c(c(O)c1C2=O)C[C@@](O)(C(=O)CO)C[C@@H]3O[C@H]1C[C@H](N)[C@H](O)[C@H](C)O1 [Doxorubicin] + Cc1cc2ncnn2cc1Nc1ncc2c(n1)n(C1CCOCC1)c(=O)n2C [AZD7648] (first compound max 1 µM, 7x7, partner max 10 µM) | 0.107 | 0.0789 | 0.0851 | 0.0458 | 0.0485 | 0.0878 | 0.112 | 0.0178 | 0.0206 | 0.0271 | 0.0476 | 0.0698 | 0.0172 | 0.0081 | -0.0449 | 0.0633 | 0.0138 | 0.0656 | 0.0415 | 0.0909
COc1cc2ncnc(Nc3ccc(F)c(Cl)c3)c2cc1OCCCN1CCOCC1 [Gefitinib] + CC(C)n1c(=O)n(C)c2cnc3cc(F)c(-c4ccc(OCCCN5CCCCC5)nc4)cc3c21 [AZD1390] (first compound max 10 µM, 7x7, partner max 0.3 µM) | -0.0735 | -0.0554 | -0.0466 | -0.086 | -0.0341 | -0.11 | -0.0833 | -0.0613 | -0.0485 | -0.0439 | -0.0603 | -0.058 | -0.0626 | -0.0693 | -0.0999 | -0.0726 | 0.0081 | -0.0591 | -0.0621 | -0.0498
CS(=O)(=O)CCNCc1ccc(-c2ccc3ncnc(Nc4ccc(OCc5cccc(F)c5)c(Cl)c4)c3c2)o1 [Lapatinib] + C[C@@H](Oc1cc(-c2cnn(C3CCNCC3)c2)cnc1N)c1c(Cl)ccc(F)c1Cl [Crizotinib] (first compound max 10 µM, 7x7, partner max 10 µM) | 0.0097 | -0.0564 | -0.0093 | -0.0528 | -0.0302 | -0.0596 | -0.0027 | -0.038 | -0.0049 | -0.0051 | -0.0262 | -0.0083 | -0.0764 | 0.0068 | -0.0298 | -0.0611 | -0.0827 | -0.0518 | -0.0452 | -0.0194
CC(=O)c1c(C)c2cnc(Nc3ccc(N4CCNCC4)cn3)nc2n(C2CCCC2)c1=O [Palbociclib] + CC1(C)CCC(CN2CCN(c3ccc(C(=O)NS(=O)(=O)c4ccc(NCC5CCOCC5)c([N+](=O)[O-])c4)c(Oc4cnc5[nH]ccc5c4)c3)CC2)=C(c2ccc(Cl)cc2)C1 [Venetoclax] (first compound max 10 µM, 7x7, partner max 1 µM) | -0.0439 | -0.003 | -0.0457 | -0.07 | -0.0542 | -0.0207 | 0.0557 | -0.0379 | -0.0437 | -0.0166 | -0.0461 | -0.0096 | -0.0505 | -0.029 | -0.0012 | -0.0316 | -0.0353 | -0.0892 | -0.0417 | 0.0308
CC(=O)c1c(C)c2cnc(Nc3ccc(N4CCNCC4)cn3)nc2n(C2CCCC2)c1=O [Palbociclib] + Cc1c2c(nn1C)CSCc1cc(n(C)n1)CSc1cc(c3ccccc3c1)OCCCc1c(C(=O)O)n(C)c3c-2c(Cl)ccc13 [AZD5991] (first compound max 10 µM, 7x7, partner max 1 µM) | -0.0442 | -0.0589 | -0.035 | 0.0189 | -0.0363 | -0.0808 | 0.0919 | -0.0324 | -0.0244 | 0.013 | -0.0212 | 0.0338 | 0.0284 | -0.0469 | -0.0083 | -0.0081 | -0.0014 | -0.0393 | -0.0197 | -0.0201
CC(=O)c1c(C)c2cnc(Nc3ccc(N4CCNCC4)cn3)nc2n(C2CCCC2)c1=O [Palbociclib] + Cn1cnc2c(F)c(Nc3ccc(Br)cc3Cl)c(C(=O)NOCCO)cc21 [Selumetinib] (first compound max 10 µM, 7x7, partner max 10 µM) | -0.035 | 0.0031 | 0.0219 | -0.0665 | 0.0057 | -0.0351 | 0.0343 | -0.0172 | -0.0291 | 0.0142 | 0.0291 | 0.0404 | -0.0471 | 0.0639 | -0.0121 | 0.0539 | -0.0559 | -0.0355 | -0.0402 | -0.0114
COc1cccc(OCCCN)c1-c1cc(Nc2cnc(C#N)cn2)n[nH]1 [Prexasertib] + C=CCn1c(=O)c2cnc(Nc3ccc(N4CCN(C)CC4)cc3)nc2n1-c1cccc(C(C)(C)O)n1 [AZD1775] (first compound max 1 µM, partner max 1 µM) | 0.233 | 0.142 | 0.0426 | 0.109 | 0.108 | 0.0651 | 0.0096 | -0.029 | 0.0246 | -0.0601 | 0.0849 | 0.0016 | 0.186 | 0.0716 | -0.0202 | 0.0434 | -0.0084 | 0.0481 | 0.105 | 0.0225
COc1cccc(OCCCN)c1-c1cc(Nc2cnc(C#N)cn2)n[nH]1 [Prexasertib] + CCc1c2c(nc3ccc(O)cc13)-c1cc3c(c(=O)n1C2)COC(=O)[C@]3(O)CC [SN-38] (first compound max 1 µM, 7x7, partner max 0.3 µM) | 0.0129 | -0.0322 | -0.0742 | -0.11 | 0.0242 | 0.0465 | -0.0108 | 0 | -0.0201 | 0.0418 | 0.0337 | -0.0073 | 0.111 | 0.049 | -0.081 | -0.0239 | -0.0593 | -0.0258 | -0.0064 | -0.0193
COc1cccc(OCCCN)c1-c1cc(Nc2cnc(C#N)cn2)n[nH]1 [Prexasertib] + CN(C)CCCOc1ccc(-c2ccc3ncc4c(c3c2)n(C2CCOCC2)c(=O)n4C)cn1 [AZD0156] (first compound max 1 µM, 7x7, partner max 1 µM) | -0.0525 | 0.0542 | -0.0324 | -0.0235 | -0.0225 | 0.0229 | -0.0491 | -0.0026 | -0.0482 | 0.0056 | 0.0349 | -0.0411 | 0.016 | 0.0068 | -0.0296 | -0.02 | -0.0194 | 0.0036 | -0.0869 | 0.041
